Test results published in ChEMBL document CHEMBL2157872, “Trimeric purine nucleoside phosphorylase: exploring postulated one-third-of-the-sites binding in the transition state” (Bioorg Med Chem, 2012).

Columns and labels:
[1] = target: T1, Purine nucleoside phosphorylase (Bos taurus, UniProt P55859)
T1 sequence (P55859 whole entry): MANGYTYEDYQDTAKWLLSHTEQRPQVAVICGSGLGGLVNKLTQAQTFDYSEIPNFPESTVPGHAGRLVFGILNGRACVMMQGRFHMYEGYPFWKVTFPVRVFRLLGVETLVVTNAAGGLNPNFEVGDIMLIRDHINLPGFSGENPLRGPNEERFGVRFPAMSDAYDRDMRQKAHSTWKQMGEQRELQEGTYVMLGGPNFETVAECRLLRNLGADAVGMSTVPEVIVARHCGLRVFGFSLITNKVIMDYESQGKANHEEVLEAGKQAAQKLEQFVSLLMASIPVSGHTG

[2] = target: T2, Purine nucleoside phosphorylase (Bos taurus, UniProt P55859, F200W)
Description: Binding affinity to calf recombinant PNP Phe200Trp mutant expressed in Escherichia coli BL21 (DE3) by fluorimetric titration analysis

[3] = target: T1, Purine nucleoside phosphorylase; assay: Binding affinity to calf recombinant PNP expressed in Escherichia coli BL21 (DE3) by fluorimetric titration analysis
[4] = target: Purine nucleoside phosphorylase (Bos taurus, UniProt P55859, F159W); assay: Binding affinity to calf recombinant PNP Phe159Trp mutant expressed in Escherichia coli BL21 (DE3) by fluorimetric titration analysis
[5] = target: T3, Purine nucleoside phosphorylase (Bos taurus) (UniProt P55859)
T3 sequence (whole entry): T1 sequence (P55859 whole entry)
Description: Inhibition of bovine PNP using 7-methylguanosine as substrate by spectrophotometric based coupled assay

[6] = target: T2, Purine nucleoside phosphorylase; assay: Binding affinity to calf recombinant PNP Phe200Trp mutant expressed in Escherichia coli BL21 (DE3) by competitive binding fluorimetric analysis in presence of DFPP-DG
[7] = target: T1, Purine nucleoside phosphorylase; assay: Binding affinity to calf recombinant PNP expressed in Escherichia coli BL21 (DE3) by isothermal titration calorimetry/ fluorimetric titration analysis

T2 sequence (P55859 whole entry F200W): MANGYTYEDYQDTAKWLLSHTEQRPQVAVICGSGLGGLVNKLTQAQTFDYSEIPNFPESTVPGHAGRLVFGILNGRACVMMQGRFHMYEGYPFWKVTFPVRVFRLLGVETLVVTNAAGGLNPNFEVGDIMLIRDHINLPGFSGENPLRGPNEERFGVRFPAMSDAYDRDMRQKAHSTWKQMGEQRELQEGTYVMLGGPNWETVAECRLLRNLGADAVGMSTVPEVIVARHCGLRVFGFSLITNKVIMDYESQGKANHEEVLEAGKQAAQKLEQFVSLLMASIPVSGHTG
Sequence of Purine nucleoside phosphorylase (Bos taurus, UniProt P55859, F159W) (P55859 whole entry F159W): as the sequence (P55859 whole entry F200W) above, with F159W, W200F counted along it

Compound	Kd [1]	Kieq [5]	also measured
O=c1[nH]cnc2c([C@@H]3N[C@H](CO)[C@@H](O)[C@H]3O)c[nH]c12 [FORODESINE]	0.023 nM		
Nc1nc2nc[nH]c2c(=O)[nH]1 [GUANINE]	120 nM		Kd [2]: 160 nM; Kd [3]: 160 nM; Kd [4]: 3300 nM
C[C@@H](Cn1cnc2c(N)nc(N)nc21)OCP(=O)(O)O		6 µM	Kd [6]: 860 nM
Nc1nc2c(CNCCC(F)(F)P(=O)(O)O)c[nH]c2c(=O)[nH]1		0.0068 µM	Kd [7]: 3.6 nM
O=c1[nH]cnc2nc[nH]c12		2.5 µM	
Nc1nc2cc[nH]c2c(=O)[nH]1	160 nM	7.4 µM	Kd [3]: 170 nM
Nc1nc2[nH]cnc2c(=O)[nH]1		4 µM	
